This is an account of results in US5616613A, “Platinum(II) complex and malignant tumor treatment agent” (priority 1994, dated 1997).

In one data set the test system is testicular carcinoma. Conditions: cited from earlier work; for effectiveness against testicular carcinoma and the like (in words): in vivo.
Data set [1] has as its system cisplatin-resistant L1210 cells. Description: In vitro cytotoxic effect on cisplatin-resistant mouse leukemia L1210 cells (XTT colorimetric method). Conditions: read-out: 50% cell growth inhibition concentration (IC50), 37° C., 5 days. It counts as cell-based. As for the experimental part:
A test of the in vitro cytotoxic effect of compound 15 and cisplatin on cisplatin-resistant mouse leukemia L1210 cells was conducted in the following manner.
1×10^5 cisplatin-resistant L1210 cells were seeded in a 96-well plate at 100 μl per well. About 100 μl of the drugs at graded dilutions was added to each well. Culturing was then performed at 37° C. for 5 days, and the cells were counted by the XTT colorimetric method.

Another data set has as its system mouse leukemia L1210. Briefly: Antitumor activity against L1210 cell-planted mice (T/C value). It counts as in vivo. Conditions: intraperitoneal, CDF1 mice. As for the experimental part:
A portion of 1×10^5 mouse leukemia L1210 cells subcultured in DBA/2 mice were transplanted in the abdominal cavities of CDF1 mice (male, 6 weeks old, 6-10 animals/group). Each of the test compounds was intraperitoneally administered to the mice on the 1st, […] and 9th days after the day of transplantation. Each of the preparations was used after being dissolved in distilled water.
The antitumor activity of the platinum complexes against the L1210 cell-planted mice was evaluated based on the T/C value determined by the following equation. [formula]

The conditions of data set [2]: prior-art complexes; cited from earlier work.

For the compound `N.N.[Cl][Pt][Cl]` [Cisplatin, cis-diamminedichloroplatinum(II) complex], the “effectiveness against testicular carcinoma and the like (in words)” value in the data set on testicular carcinoma is listed as “very effective”. In addition, the “potency when readministered to recurrent patients (in words)” value with testicular carcinoma is reported as “lowered potency”. Moreover, the IC50 in data set [1] was 0.0107 µM. Besides, the T/C in the data set on mouse leukemia L1210 (0.25 mg/kg) was 101%; in the data set with mouse leukemia L1210 (0.5 mg/kg), 101%; in the data set with mouse leukemia L1210 (1 mg/kg) it was 106%; in the data set on mouse leukemia L1210 (2 mg/kg), 123%; in the data set on mouse leukemia L1210 (4 mg/kg) it was 160%.
Regarding `N.N.O=C([O-])C1(C(=O)[O-])CCC1.[Pt+2]` [carboplatin], in the data set with testicular carcinoma, the “effectiveness against testicular carcinoma and the like (in words)” value is recorded as “very effective”; the “potency when readministered to recurrent patients (in words)” value is given as “lowered potency”.
Consider `O=C(O)c1ccc(C(=O)O)c(C(=O)O)c1` [trimellitic acid], for which, in data set [2], the “stability in aqueous solutions (in words)” value is recorded as “poor stability”.
